Measured values published in ChEMBL document CHEMBL1773025, “Synthesis of tetrahydronaphthalene lignan esters by intramolecular cyclization of ethyl p-azidophenyl-2-phenylalkanoates and evaluation of the growth inhibition of human tumor cell lines” (2011).
Calls of active or inactive are those of the source. The calls are words filed in the database; no cut-off is given here.

Tests used:
MCF7 = test: Growth inhibition of human MCF7 cells after 48 hrs by sulforhodamine B assay; format: functional; conditions: MCF7, 48 h
NCI-H460 = test: Growth inhibition of human NCI-H460 cells after 48 hrs by sulforhodamine B assay; format: functional; conditions: NCI-H460, 48 h
SF-268 = test: Growth inhibition of human SF268 cells after 48 hrs by sulforhodamine B assay; format: functional; conditions: SF-268, 48 h
WI-38 VA13 = test: Growth inhibition of human VA13 cells after 48 hrs by sulforhodamine B assay; format: functional, cell-based
UACC-62 = test: Growth inhibition of human UACC62 cells after 48 hrs by sulforhodamine B assay; format: functional; conditions: UACC-62, 48 h
HepG2 = test: Growth inhibition of human HepG2 cells after 48 hrs by sulforhodamine B assay; format: functional, cell-based

Structure (SMILES)	GI50 (MCF7)	GI50 (NCI-H460)	GI50 (SF-268)	growth inhibition (GI) (WI-38 VA13)	GI50 (UACC-62)	growth inhibition (GI) (HepG2)
CCOC(=O)C1CCC(c2ccc(N)cc2)c2ccccc21 (racemic)	117 µM	142 µM	116 µM	inactive		
CCOC(=O)C1CCC2(C=CC(=O)C=C2)c2ccccc21 (centres undefined)	16.4 µM	19.2 µM	21.9 µM			
CCOC(=O)C(CCCc1ccc(N=[N+]=[N-])cc1)c1ccccc1 (centres undefined)	> 150 µM	> 150 µM	> 150 µM			
CCOC(=O)C(CCc1cccc([N+](=O)[O-])c1)c1ccccc1 (centres undefined)	92.7 µM	149 µM	> 150 µM			
CCOC(=O)C(CCCc1ccc(N)cc1)c1ccccc1 (centres undefined)	155 µM	> 160 µM	> 160 µM		> 100 µM	
CCOC(=O)C(CCc1cccc(N=[N+]=[N-])c1)c1ccccc1 (centres undefined)	120 µM	> 160 µM	> 160 µM			
CCOC(=O)C(CCCc1ccc([N+](=O)[O-])cc1)c1ccccc1 (centres undefined)	16.4 µM	19.4 µM	23.2 µM			
COC(=O)/C=C/c1cccc([N+](=O)[O-])c1	74.1 µM	175 µM	180 µM			
COc1cccc2c1C(=O)c1c(O)c3c(c(O)c1C2=O)C[C@@](O)(C(=O)CO)C[C@@H]3O[C@H]1C[C@H](N)[C@H](O)[C@H](C)O1 [DOXORUBICIN]	42.8 µM	0.094 µM	0.094 µM			
CCOC(=O)C(CCCc1cccc([N+](=O)[O-])c1)c1ccccc1 (centres undefined)	149 µM	> 150 µM	> 150 µM			
CCOC(=O)C(CCCc1cccc(N)c1)c1ccccc1 (centres undefined)	109 µM	154 µM	> 160 µM		125 µM	
COc1cc(C2c3c(cc4c(c3OC)OCO4)CC(COC(C)=O)C2COC(C)=O)cc(OC)c1O (centres undefined)						inactive
CCOC(=O)C(CCc1cccc(N)c1)c1ccccc1 (centres undefined)	104 µM	132 µM	159 µM		102 µM	
O=[N+]([O-])c1ccc(CCI)cc1	55.8 µM	112 µM	95.7 µM			
COC(=O)/C=C/c1ccc([N+](=O)[O-])cc1	214 µM	> 240 µM	> 240 µM			
CCOC(=O)C(CCc1ccc([N+](=O)[O-])cc1)c1ccccc1 (centres undefined)	134 µM	> 150 µM	> 150 µM			
CCOC(=O)C(CCc1ccc(N)cc1)c1ccccc1 (centres undefined)	36.3 µM	40.8 µM	51.8 µM		23.3 µM	
CCOC(=O)C(CCc1ccc(N=[N+]=[N-])cc1)c1ccccc1 (centres undefined)	125 µM	> 160 µM	> 160 µM			
CCOC(=O)C(CCCc1cccc(N=[N+]=[N-])c1)c1ccccc1 (centres undefined)	119 µM	> 150 µM	> 150 µM			
O=[N+]([O-])c1cccc(CCCO)c1	> 250 µM	> 250 µM	> 250 µM		> 250 µM	
